Here are results for 4 molecules from patent publication US20080081284A1, “OPTICAL INFORMATION RECORDING MEDIUM” (FUJIFILM Corporation, priority 2006, published 2008).

The nature of this data set: Evaluation of light fastness of dye film. The data set is classed as physicochemical. The note with it: residual dye ratio at absorption λmax 48 hours after Xe light irradiation; dye film on glass plate. The procedure: Dye-containing coating liquids equal to those of Examples 1 to 3, and Comparative Examples 1 to 4 were prepared, and each coating liquid was applied to a 1.1-mm-thick glass plate by a spin coating method under conditions of 23° C. and 50% RH while changing the rotation rate within a range of 500 to 1,000 rpm. The glass plate with the dye film was stored for 24 hours under conditions of 23° C. and 50% RH, and then subjected to a light fastness test using a merry-go-round-type light fastness tester (Cell Tester Model III manufactured by Eagle Engineering, equipped with WG320 Filter manufactured by Schott). The absorption spectrum of the dye film was measured using UV-1600PC manufactured by SHIMADZU immediately before the light fastness test and 48 hours after the light fastness test, and the change of the absorbancy at the maximum absorption wavelength was evaluated.
With `Cn1nc(C(C)(C)C)c(N=Nc2c(C#N)cnn2-c2cc(C(=O)O)cc(C(=O)O)c2)c1N` [Compound (A-1)], the “Light fastness of dye film” value was “Good (evaluated as “Good” when the ratio was 70% or more and less than 85%)”.

For the molecule `CCCCC(CC)COC(=O)Nc1ccc(-c2nn3nc(C(C)(C)C)c(/N=N/c4c(C#N)cnn4-c4cc(C(=O)O)cc(C(=O)O)c4)c3[nH]2)cc1` (stereo not shown) [Compound (C)], the “Light fastness of dye film” value was “Fair (evaluated as “Fair” when the ratio was 60% or more and less than 70%)”.

`Cc1n[nH]c2c(/N=N/c3c(C#N)c(C(C)(C)C)nn3C)c(C(C)(C)C)nn12` [Compound (D)]: the “Light fastness of dye film” value is “Fair (evaluated as “Fair” when the ratio was 60% or more and less than 70%)”.

Consider `Cc1nn2nc(C(C)(C)C)c(/N=N/c3c(C#N)cnn3-c3cc(C(=O)O)cc(C(=O)O)c3)c2n1C` [Compound (A-7)], for which the “Light fastness of dye film” value is on record as “Excellent (Evaluated as “Excellent” when the residual dye ratio was 85% or more at the absorption λmax 48 hours after the irradiation with an Xe light)”.
